Experimental findings from patent publication US10011584B2, “Polymorphic form of [5-fluoro-3-({2-[(4-fluorobenzene) sulfonyl]pyridin-3-yl}methyl)-2-methylindol-1-yl]-acetic acid” (Atopix Therapeutics Limited, priority 2014, dated 2018) are described below.

Holding throughout (type): physicochemical
Data set [1] in a line: Thermodynamic stability of polymorphic forms (suspension equilibration of a mixture of forms, PXRD). The settings on record: for temperature range of thermodynamic stability (in words): enantiotropic polymorphs. The protocol: Polymorphic Form 2 has a melting signal at 196° C. as measured by differential scanning calorimetry and is stable at temperatures up to about 60-65° C.
A mixture with similar ratios of the products of Example 4, Experiment 15 (Form 1), Example 4, Experiment 9 (form 2+x) and Example 4, Experiment 6 (Form 2+Form 3) were suspended in acetonitrile and shaken for 13 days at 22° C. to give a product designated Product P24). The solid was recovered by filter centrifugation and characterized by PXRD. […] These signals could be assigned to (i) another crystalline form or (ii) the signals could not be detected for Product P24 because the diffractogram has a lower intensity.
Thus, after 13 days at 22° C. the PXRD corresponds to that of Form 2.

A further data set in a line: TG-FTIR thermogravimetry. The settings on record: 25° C. to 250° C., heating rate 10° C./min. The protocol:
(§1) In the Examples the following conditions were used for measurements. • 1H-NMR: 1H-NMR spectra were recorded using a Bruker DPX300 spectrometer with a proton frequency of 300.13 MHz, a 30° excitation pulse, and a recycle delay of 1 s. 16 scans were accumulated. d6-DMSO was used as the solvent. • DSC: Differential scanning calorimetry was carried out with a Perkin Elmer DSC-7 instrument (closed gold sample pan under N2 atmosphere). • DVS (SPS): Sorption Measurement System SPS11-100n. The sample was placed in an Al crucible, and the sample was allowed to equilibrate at a given r.h. before starting a predefined humidity program. The used measurement program can be recognized in the corresponding figures (blue line). • FT-Raman spectroscopy: FT-Raman spectra were recorded on a Bruker RFS 100 FT-Raman system with a near infrared Nd:YAG laser operating at 1064 nm and a liquid nitrogen-cooled germanium detector. For each sample, a minimum of 64 scans with a resolution of 2 cm^−1 were accumulated. 300 mW laser power was used. The FT-Raman data are shown in the region between 3500 to 100 cm^−1. […] Sample preparation: The samples were generally measured without any special treatment other than the application of slight pressure to get a flat surface. […]
Batch 3 was analyzed by TG-FTIR in a temperature range of 25° C. to 250° C. and a heating rate of 10° C./min. […]

Data set [2] in a line: Dynamic vapour sorption (DVS) with FT-Raman check pre- and post-measurement. The protocol: as §1
In order to examine the behaviour of Batch 1 in the presence of variable water vapour pressure, the sample was analyzed by DVS. […]

Turning to `Cc1c(Cc2cccnc2S(=O)(=O)c2ccc(F)cc2)c2cc(F)ccc2n1CC(=O)O` [Form 3, [5-fluoro-3-({2-[(4-fluorobenzene)sulfonyl]pyridin-3-yl}methyl)-2-methylindol-1-yl]-acetic acid], the “temperature range of thermodynamic stability (in words)” value in data set [1] is “stable at temperatures between the stability ranges of Forms 2 and 1”. Regarding `Cc1c(Cc2cccnc2S(=O)(=O)c2ccc(F)cc2)c2cc(F)ccc2n1CC(=O)O` [Form 2, [5-fluoro-3-({2-[(4-fluorobenzene)sulfonyl]pyridin-3-yl}methyl)-2-methylindol-1-yl]-acetic acid], the “most stable form after suspension equilibration” value in data set [1] (mixture of Forms 1, 2 and 3 in acetonitrile, shaken 13 days at 22° C., PXRD) is recorded as “most stable form at room temperature”. In addition, the “temperature up to which the form is thermodynamically stable” value in data set [1] (upper limit of stability range of the polymorphic form) was 60-65 °C.

Regarding `Cc1c(Cc2cccnc2S(=O)(=O)c2ccc(F)cc2)c2cc(F)ccc2n1CC(=O)O` [Batch 3, [5-fluoro-3-({2-[(4-fluorobenzene)sulfonyl]pyridin-3-yl}methyl)-2-methylindol-1-yl]-acetic acid], the decomposition temperature in “TG-FTIR thermogravimetry” was > 160 °C. Consider `Cc1c(Cc2cccnc2S(=O)(=O)c2ccc(F)cc2)c2cc(F)ccc2n1CC(=O)O` [Batch 1, [5-fluoro-3-({2-[(4-fluorobenzene)sulfonyl]pyridin-3-yl}methyl)-2-methylindol-1-yl]-acetic acid], for which the “phase transition of sample recovered from DVS” value in data set [2] (FT-Raman pre- and post DVS) is “no phase transition”. In addition, in data set [2] (end humidity 50% r.h., scanning rate 5% r.h. per hour, cycle 50-0-95-50% r.h.), the “mass change at the end of the DVS measurement versus starting material” value was 0.6%. With `Cc1c(Cc2cccnc2S(=O)(=O)c2ccc(F)cc2)c2cc(F)ccc2n1CC(=O)O` [Form 1, [5-fluoro-3-({2-[(4-fluorobenzene)sulfonyl]pyridin-3-yl}methyl)-2-methylindol-1-yl]-acetic acid], the “temperature range of thermodynamic stability (in words)” value in data set [1] is reported as “thermodynamically stable at high temperatures”.
